Laboratory results published in ChEMBL document CHEMBL2417397, “Synthesis and biological properties of new N-Mannich bases derived from 3-methyl-3-phenyl- and 3,3-dimethyl-succinimides. Part V” (Eur J Med Chem, 2013).
Active and inactive are the calls of the source. No cut-off for these calls is given here.

Tests used:
[1] = species on record: Rattus norvegicus; experiment: Protective index, ratio of TD50 for Sprague-Dawley albino rat by rotarod test to ED50 for Sprague-Dawley albino rat; type: functional
[2] = Neurotoxicity in po dosed Sprague-Dawley albino rat at 30 mg/kg, po after 0.25 to 4 hrs by rotarod test; type: toxicity, organism-based; design: dose 30 mg/kg, route oral; settings: in vivo
[3] = tested on: Rattus norvegicus; experiment: Anticonvulsant activity in po dosed Sprague-Dawley albino rat assessed as protection against maximal electroshock-induced seizures after 0.25 to 4 hrs; type: functional
[4] = tested on: Mus musculus; experiment: Neurotoxicity in CF-1 albino mouse at 300 mg/kg, ip after 4 hrs by rotarod test; type: toxicity, organism-based; design: dose 300 mg/kg, route intraperitoneal; settings: in vivo
[5] = Neurotoxicity in ip dosed CF-1 albino mouse after 0.5 hrs by rotarod test; type: toxicity, organism-based; settings: CF-1, mouse, in vivo
[6] = tested on: Mus musculus; experiment: Anticonvulsant activity in CF-1 albino mouse assessed as protection against maximal electroshock-induced seizures at 300 mg/kg, ip after 4 hrs; type: functional, organism-based; design: dose 300 mg/kg
[7] = tested on: Mus musculus; experiment: Anticonvulsant activity in CF-1 albino mouse assessed as protection against maximal electroshock-induced seizures at 300 mg/kg, ip after 0.5 hrs; type: functional, organism-based; design: dose 300 mg/kg
[8] = tested on: Vibrio harveyi; experiment: Antimutagenic activity in Vibrio harveyi BB7XM assessed as inhibition of 4-nitroquinoline-N-oxide-induced mutation; type: functional
[9] = tested on: Vibrio harveyi; experiment: Antimutagenic activity in Vibrio harveyi BB7M assessed as inhibition of 4-nitroquinoline-N-oxide-induced mutation; type: functional
[10] = tested on: Vibrio harveyi; experiment: Antimutagenic activity in Vibrio harveyi BB7X assessed as inhibition of 4-nitroquinoline-N-oxide-induced mutation; type: functional
[11] = tested on: Vibrio harveyi; experiment: Antimutagenic activity in Vibrio harveyi BB7 assessed as inhibition of 4-nitroquinoline-N-oxide-induced mutation; type: functional
[12] = tested on: Vibrio harveyi; experiment: Induction of mutagenecity in Vibrio harveyi BB7XM; type: organism-based; settings: in vivo
[13] = tested on: Vibrio harveyi; experiment: Induction of mutagenecity in Vibrio harveyi BB7M; type: organism-based; settings: in vivo
[14] = tested on: Vibrio harveyi; experiment: Induction of mutagenecity in Vibrio harveyi BB7X; type: organism-based; settings: in vivo
[15] = tested on: Vibrio harveyi; experiment: Induction of mutagenecity in Vibrio harveyi BB7; type: organism-based; settings: in vivo
[16] = tested on: Mus musculus; experiment: Neurotoxicity in CF-1 albino mouse at 300 mg/kg, ip after 0.5 hrs by rotarod test; type: toxicity, organism-based; design: dose 300 mg/kg, route intraperitoneal; settings: in vivo
[17] = tested on: Mus musculus; experiment: Anticonvulsant activity in ip dosed CF-1 albino mouse assessed as protection against maximal electroshock-induced seizures after 4 hrs; type: functional
[18] = tested on: Mus musculus; experiment: Anticonvulsant activity in ip dosed CF-1 albino mouse assessed as protection against maximal electroshock-induced seizures after 0.5 hrs; type: functional
[19] = Neurotoxicity in ip dosed CF-1 albino mouse after 4 hrs by rotarod test; type: toxicity, organism-based; settings: CF-1, mouse, in vivo
[20] = tested on: Rattus norvegicus; experiment: Neurotoxicity in Sprague-Dawley albino rat assessed as motor impairment at 30 mg/kg, po; type: toxicity, organism-based; design: dose 30 mg/kg, route oral; settings: in vivo
[21] = tested on: Rattus norvegicus; experiment: Anticonvulsant activity in Sprague-Dawley albino rat assessed as protection against maximal electroshock-induced seizures at 30 mg/kg, po after 4 hrs; type: functional
[22] = tested on: Rattus norvegicus; experiment: Anticonvulsant activity in Sprague-Dawley albino rat assessed as protection against maximal electroshock-induced seizures at 30 mg/kg, po after 2 hrs; type: functional
[23] = tested on: Rattus norvegicus; experiment: Anticonvulsant activity in Sprague-Dawley albino rat assessed as protection against maximal electroshock-induced seizures at 30 mg/kg, po after 1 hr; type: functional
[24] = tested on: Rattus norvegicus; experiment: Anticonvulsant activity in Sprague-Dawley albino rat assessed as protection against maximal electroshock-induced seizures at 30 mg/kg, po after 0.5 hrs; type: functional
[25] = tested on: Rattus norvegicus; experiment: Anticonvulsant activity in Sprague-Dawley albino rat assessed as protection against maximal electroshock-induced seizures at 30 mg/kg, po after 0.25 hrs; type: functional

Structure (SMILES) | Activity [4] | TD50 at 0.5 h [5] | Activity [6] | Activity [7] | Activity [12] | Activity [13] | Activity [14] | Activity [15] | MED50 [17] | TD50 at 4 h [19] | other results
O=C1CC(c2ccccc2)(c2ccccc2)C(=O)N1CN1CCN(c2cccc(C(F)(F)F)c2)CC1 | – | – | – | – | – | – | – | – | – | – | Ratio TD50/ED50 [1]: <13.2; TD50 [2]: < 400 mg/kg; ED50 [3]: 30 mg/kg
COc1ccccc1N1CCN(CN2C(=O)CC(C)(C)C2=O)CC1 | Non-toxic | 300 mg/kg | inactive | inactive | – | – | – | – | – | – | –
CC1(c2ccccc2)CC(=O)N(CN2CCN(c3ccccc3)CC2)C1=O (configuration not stated) | Non-toxic | – | – | inactive | Non-toxic | Non-toxic | Non-toxic | Non-toxic | 100 mg/kg | – | inhibition (INH) [8]: 40%; inhibition (INH) [9]: 38%; inhibition (INH) [10]: 0%; inhibition (INH) [11]: 28%; Activity [16]: Non-toxic
CC1(C)CC(=O)N(CN2CCN(c3ccc(Cl)c(Cl)c3)CC2)C1=O | Non-toxic | – | inactive | inactive | – | – | – | – | – | – | Activity [16]: Non-toxic
O=C1CC2(CCc3ccccc3C2)C(=O)N1CN1CCN(c2cccc(Cl)c2)CC1 (configuration not stated) | – | – | – | – | – | – | – | – | – | – | Ratio TD50/ED50 [1]: >25.69; TD50 [2]: > 400 mg/kg; ED50 [3]: 15.6 mg/kg
COc1cccc(N2CCN(CN3C(=O)CC(C)(c4ccccc4)C3=O)CC2)c1 (configuration not stated) | Non-toxic | – | – | – | Toxic | Toxic | Non-toxic | Non-toxic | 100 mg/kg | – | Activity [16]: Non-toxic; MED50 [18]: 100 mg/kg
Cc1ccccc1N1CCN(CN2C(=O)CC(C)(C)C2=O)CC1 | – | 300 mg/kg | inactive | inactive | – | – | – | – | – | 300 mg/kg | –
COc1ccccc1N1CCN(CN2C(=O)CC(C)(c3ccccc3)C2=O)CC1 (configuration not stated) | – | 300 mg/kg | – | – | Toxic | Toxic | Non-toxic | Non-toxic | 100 mg/kg | 300 mg/kg | Activity [20]: Non-toxic; Activity [21]: 50%; Activity [22]: 50%; Activity [23]: 50%; Activity [24]: inactive; Activity [25]: inactive; MED50 [18]: 100 mg/kg
CC1(C)CC(=O)N(CN2CCN(c3ccccc3)CC2)C1=O | – | 300 mg/kg | – | inactive | – | – | – | – | 100 mg/kg | 300 mg/kg | –
CC1(C)CC(=O)N(CN2CCN(c3ccc(Cl)cc3)CC2)C1=O | Non-toxic | 300 mg/kg | inactive | inactive | – | – | – | – | – | – | –
CC1(C)CC(=O)N(CN2CCN(c3cccc(C(F)(F)F)c3)CC2)C1=O | – | 300 mg/kg | – | inactive | – | – | – | – | 30 mg/kg | 300 mg/kg | Activity [20]: Non-toxic; Activity [21]: Active; Activity [22]: 50%; Activity [23]: 25%; Activity [24]: 75%; Activity [25]: 25%
CC1(C)CC(=O)N(CN2CCN(c3cccc(Cl)c3)CC2)C1=O | – | 300 mg/kg | inactive | inactive | – | – | – | – | – | 300 mg/kg | –
Cc1ccccc1N1CCN(CN2C(=O)CC(C)(c3ccccc3)C2=O)CC1 (configuration not stated) | Non-toxic | 300 mg/kg | inactive | inactive | Toxic | Toxic | Non-toxic | Non-toxic | – | – | –
